These are literature values, as cited in US20130243825A1, “COMPOSITIONS AND METHODS FOR THE TREATMENT OF SKIN DISEASES” (priority 2012, published 2013).

Entries after “also recorded” stand apart in the source; their conditions may differ.

The subject of one data set is vasoconstriction. The conditions noted are these: seven potency groups, I ultra high to VII least potent; Ference and Last 2009.
Consider `CCC(=O)OCC(=O)[C@@]1(OC(=O)CC)[C@H](C)C[C@H]2[C@H]3[C@H]([C@@H](O)C[C@@]21C)[C@@]1(C)C=CC(=O)C=C1C[C@H]3Cl` [Alclometasone dipropionate 0.05%, Alclometasone dipropionate], for which the “potency group by strength in standard vasoconstriction assay” value (“potency group by strength” below) is on record as “Low (VI)”.

Take `CCCCC(=O)O[C@]1(C(=O)CO)[C@@H](C)C[C@H]2[C@@H]3CCC4=CC(=O)C=C[C@]4(C)[C@@]3(F)[C@@H](O)C[C@@]21C` [Betamethasone valerate 0.1%, Betamethasone valerate]: the “potency group by strength” value is “Medium (IV and V)”.

Turning to `CCC(=O)O[C@]1(C(=O)CCl)[C@@H](C)C[C@H]2[C@@H]3CCC4=CC(=O)C=C[C@]4(C)[C@@]3(F)[C@@H](O)C[C@@]21C` [Clobetasol propionate 0.05%, Clobetasol propionate], the “potency group by strength” value is on record as “Ultra high (I)”.

As for `CC1(C)O[C@@H]2C[C@H]3[C@@H]4CCC5=CC(=O)C=C[C@]5(C)[C@H]4[C@@H](O)C[C@]3(C)[C@]2(C(=O)CO)O1` [Desonide 0.05%, Desonide], the “potency group by strength” value is reported as “Low (VI)”.

On to `C[C@@H]1C[C@H]2[C@@H]3CCC4=CC(=O)C=C[C@]4(C)[C@@]3(F)[C@@H](O)C[C@]2(C)[C@H]1C(=O)CO` [Desoximetasone 0.05%, Desoximetasone], for which the “potency group by strength” value is “Medium (IV and V)”.

For the compound `C[C@@H]1C[C@H]2[C@@H]3CCC4=CC(=O)C=C[C@]4(C)[C@@]3(F)[C@@H](O)C[C@]2(C)[C@H]1C(=O)CO` [Desoximetasone 0.25%, Desoximetasone], the “potency group by strength” value was “High (II)”.

As for `CC1(C)O[C@@H]2C[C@H]3[C@@H]4C[C@H](F)C5=CC(=O)C=C[C@]5(C)[C@@]4(F)[C@@H](O)C[C@]3(C)[C@]2(C(=O)CO)O1` [Fluocinolone acetonide 0.025%, Fluocinolone acetonide], the “potency group by strength” value is “Medium (IV and V)”.

Take `CC(=O)OCC(=O)[C@@]12OC(C)(C)O[C@@H]1C[C@H]1[C@@H]3C[C@H](F)C4=CC(=O)C=C[C@]4(C)[C@@]3(F)[C@@H](O)C[C@@]12C` [Fluocinonide 0.1%, Fluocinonide]: the “potency group by strength” value is “Ultra high (I)”.

Consider `CC(=O)OCC(=O)[C@@]12OC(C)(C)O[C@@H]1C[C@H]1[C@@H]3C[C@H](F)C4=CC(=O)C=C[C@]4(C)[C@@]3(F)[C@@H](O)C[C@@]12C` [Fluocinonide 0.05%, Fluocinonide], for which the “potency group by strength” value is “High (II)”.

As for `CCC(=O)O[C@]1(C(=O)SCF)[C@H](C)C[C@H]2[C@@H]3C[C@H](F)C4=CC(=O)C=C[C@]4(C)[C@@]3(F)[C@@H](O)C[C@@]21C` [Fluticasone propionate 0.005%, Fluticasone propionate], the “potency group by strength” value is “Medium to high (III)”.

For `CCC(=O)O[C@]1(C(=O)SCF)[C@H](C)C[C@H]2[C@@H]3C[C@H](F)C4=CC(=O)C=C[C@]4(C)[C@@]3(F)[C@@H](O)C[C@@]21C` [Fluticasone propionate 0.05%, Fluticasone propionate], the “potency group by strength” value was “Medium (IV and V)”.

With `CC1(C)O[C@@H]2C[C@H]3[C@@H]4CCC5=CC(=O)CC[C@]5(C)[C@@]4(F)[C@@H](O)C[C@]3(C)[C@]2(C(=O)CCl)O1` [Halcinonide 0.1%, Halcinonide], the “potency group by strength” value is on record as “High (II)”.

`C[C@]12CCC(=O)C=C1CC[C@@H]1[C@@H]2[C@@H](O)C[C@@]2(C)[C@H]1CC[C@]2(O)C(=O)CO` [Hydrocortisone 1%, 2.5%, Hydrocortisone]: the “potency group by strength” value was “Least potent (VII)”.

Turning to `CCCC(=O)O[C@]1(C(=O)CO)CC[C@H]2[C@@H]3CCC4=CC(=O)CC[C@]4(C)[C@H]3[C@@H](O)C[C@@]21C` [Hydrocortisone butyrate 0.1%, Hydrocortisone butyrate], the “potency group by strength” value was “Medium (IV and V); also recorded: Low (VI)”.

With `CCCC(=O)O[C@]1(C(=O)COC(=O)CC)CC[C@H]2[C@@H]3CCC4=CC(=O)CC[C@]4(C)[C@H]3[C@@H](O)C[C@@]21C` [Hydrocortisone probutate 0.1%, Hydrocortisone probutate], the “potency group by strength” value was “Medium (IV and V)”.

As to `CCCCC(=O)O[C@]1(C(=O)CO)CC[C@H]2[C@@H]3CCC4=CC(=O)CC[C@]4(C)[C@H]3[C@@H](O)C[C@@]21C` [Hydrocortisone valerate 0.2%, Hydrocortisone valerate], the “potency group by strength” value was “Medium (IV and V)”.

For the compound `C[C@@H]1C[C@H]2[C@@H]3CCC4=CC(=O)C=C[C@]4(C)[C@@]3(Cl)[C@@H](O)C[C@]2(C)[C@@]1(OC(=O)c1ccco1)C(=O)CCl` [Mometasone furoate 0.1%, Mometasone furoate], the “potency group by strength” value was “Medium (IV and V)”.

For the compound Augmented betamethasone dipropionate, the “potency group by strength” value is recorded as “Ultra high (I); also recorded: High (II)”.

In the next data set the test system is standardized wounds created by sequential tape stripping. The following applies: applied to a wound for 15 seconds, 24 subjects; Pagnoni et al. 2004.
Consider `CC(C)O` [70% isopropyl alcohol, isopropyl alcohol], for which the stinging/burning sensation result is “stung”.
